# Laboratory results published in patent US20250243171A1, “QUINAZOLINE COMPOUNDS FOR TREATMENT OF DISEASE” (Arthrosi Therapeutics, Inc., priority 2021, published 2025).
# How the values were obtained:
# Test in all cases: EC50 assay: Ba/F3 stable cell proliferation (CCK-8, 72 h)
# Format in all cases: cell-based
# Ba/F3 stable cells [1] = target: T1, Ba/F3 stable cells (Homo sapiens, UniProt P00533, DUP767-769, cells depend on it); conditions: Ba/F3-EGFR V769-D770insASV cells
# T1 construct: EC50 Ba/F3-EGFR V769-D770insASV; other: Ba/F3-EGFR V769-D770insASV cells, 72 h, CCK-8
# T1 sequence (P00533 with tags, fused parts or gaps DUP767-769): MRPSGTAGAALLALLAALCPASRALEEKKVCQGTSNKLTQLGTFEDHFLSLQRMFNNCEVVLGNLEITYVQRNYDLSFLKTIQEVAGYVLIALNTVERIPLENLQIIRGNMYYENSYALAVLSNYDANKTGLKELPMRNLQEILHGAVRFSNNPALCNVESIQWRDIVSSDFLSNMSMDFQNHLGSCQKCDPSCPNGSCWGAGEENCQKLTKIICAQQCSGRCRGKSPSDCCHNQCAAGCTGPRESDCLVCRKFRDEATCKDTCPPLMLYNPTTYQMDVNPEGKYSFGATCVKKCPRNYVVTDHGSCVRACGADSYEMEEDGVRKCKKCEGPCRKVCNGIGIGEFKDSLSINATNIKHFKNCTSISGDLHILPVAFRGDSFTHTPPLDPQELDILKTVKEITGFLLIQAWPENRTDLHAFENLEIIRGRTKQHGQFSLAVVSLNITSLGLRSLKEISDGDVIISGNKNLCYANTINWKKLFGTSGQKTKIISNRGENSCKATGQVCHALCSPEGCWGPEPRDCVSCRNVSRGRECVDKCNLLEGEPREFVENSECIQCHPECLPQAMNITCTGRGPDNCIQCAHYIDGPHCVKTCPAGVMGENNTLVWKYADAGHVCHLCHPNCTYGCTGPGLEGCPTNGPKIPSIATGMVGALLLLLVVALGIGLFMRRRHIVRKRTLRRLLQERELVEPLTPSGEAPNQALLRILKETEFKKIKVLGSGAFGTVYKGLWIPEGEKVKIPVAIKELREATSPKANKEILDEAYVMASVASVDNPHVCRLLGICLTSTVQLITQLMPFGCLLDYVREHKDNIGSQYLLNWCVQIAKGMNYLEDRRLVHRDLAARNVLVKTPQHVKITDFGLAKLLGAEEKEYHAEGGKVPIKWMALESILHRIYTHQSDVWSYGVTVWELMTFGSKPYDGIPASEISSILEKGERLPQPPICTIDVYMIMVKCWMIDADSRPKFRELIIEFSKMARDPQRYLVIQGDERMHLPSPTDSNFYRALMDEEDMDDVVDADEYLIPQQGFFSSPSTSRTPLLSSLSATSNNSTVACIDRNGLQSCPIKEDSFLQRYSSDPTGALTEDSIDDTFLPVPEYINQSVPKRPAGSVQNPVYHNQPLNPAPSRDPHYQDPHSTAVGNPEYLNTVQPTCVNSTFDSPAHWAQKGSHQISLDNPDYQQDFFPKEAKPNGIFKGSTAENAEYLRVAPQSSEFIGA
# In short: (§1)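 Ba/F3 stable cells were seeded at 4,000 cells/90 μL/well in 96-well plates and held 2 h at 37° C. in 5% CO2, then given 10 μL of serially titrated compound (0.1% DMSO final). After 72 h at 37° C., CCK-8 reagent was added for 4 hours and absorbance read at 450 nm to derive EC50.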
# Ba/F3 stable cells [2] = target: T2, Ba/F3 stable cells (Homo sapiens, UniProt P00533, DUP768-770, cells depend on it); conditions: Ba/F3-EGFR D770-N771insSVD cells
# T2 construct: EC50 Ba/F3-EGFR D770-N771insSVD; other: Ba/F3-EGFR D770-N771insSVD cells, 72 h, CCK-8
# In short: as §1
# Ba/F3 stable cells [3] = target: T3, Ba/F3 stable cells (Homo sapiens, UniProt P00533, DUP771-773, cells depend on it); conditions: Ba/F3-EGFR H773-V774insNPH cells
# T3 construct: EC50 Ba/F3-EGFR H773-V774insNPH; other: Ba/F3-EGFR H773-V774insNPH cells, 72 h, CCK-8
# In short: as §1
# Ba/F3 stable cells [4] = target: T4, Ba/F3 stable cells (Homo sapiens, UniProt P00533, INS763FQEA, cells depend on it); conditions: Ba/F3-EGFR A763-Y764insFQEA cells
# T4 construct: EC50 Ba/F3-EGFR A763-Y764insFQEA; other: Ba/F3-EGFR A763-Y764insFQEA cells, 72 h, CCK-8
# T4 sequence (P00533 with tags, fused parts or gaps INS763FQEA): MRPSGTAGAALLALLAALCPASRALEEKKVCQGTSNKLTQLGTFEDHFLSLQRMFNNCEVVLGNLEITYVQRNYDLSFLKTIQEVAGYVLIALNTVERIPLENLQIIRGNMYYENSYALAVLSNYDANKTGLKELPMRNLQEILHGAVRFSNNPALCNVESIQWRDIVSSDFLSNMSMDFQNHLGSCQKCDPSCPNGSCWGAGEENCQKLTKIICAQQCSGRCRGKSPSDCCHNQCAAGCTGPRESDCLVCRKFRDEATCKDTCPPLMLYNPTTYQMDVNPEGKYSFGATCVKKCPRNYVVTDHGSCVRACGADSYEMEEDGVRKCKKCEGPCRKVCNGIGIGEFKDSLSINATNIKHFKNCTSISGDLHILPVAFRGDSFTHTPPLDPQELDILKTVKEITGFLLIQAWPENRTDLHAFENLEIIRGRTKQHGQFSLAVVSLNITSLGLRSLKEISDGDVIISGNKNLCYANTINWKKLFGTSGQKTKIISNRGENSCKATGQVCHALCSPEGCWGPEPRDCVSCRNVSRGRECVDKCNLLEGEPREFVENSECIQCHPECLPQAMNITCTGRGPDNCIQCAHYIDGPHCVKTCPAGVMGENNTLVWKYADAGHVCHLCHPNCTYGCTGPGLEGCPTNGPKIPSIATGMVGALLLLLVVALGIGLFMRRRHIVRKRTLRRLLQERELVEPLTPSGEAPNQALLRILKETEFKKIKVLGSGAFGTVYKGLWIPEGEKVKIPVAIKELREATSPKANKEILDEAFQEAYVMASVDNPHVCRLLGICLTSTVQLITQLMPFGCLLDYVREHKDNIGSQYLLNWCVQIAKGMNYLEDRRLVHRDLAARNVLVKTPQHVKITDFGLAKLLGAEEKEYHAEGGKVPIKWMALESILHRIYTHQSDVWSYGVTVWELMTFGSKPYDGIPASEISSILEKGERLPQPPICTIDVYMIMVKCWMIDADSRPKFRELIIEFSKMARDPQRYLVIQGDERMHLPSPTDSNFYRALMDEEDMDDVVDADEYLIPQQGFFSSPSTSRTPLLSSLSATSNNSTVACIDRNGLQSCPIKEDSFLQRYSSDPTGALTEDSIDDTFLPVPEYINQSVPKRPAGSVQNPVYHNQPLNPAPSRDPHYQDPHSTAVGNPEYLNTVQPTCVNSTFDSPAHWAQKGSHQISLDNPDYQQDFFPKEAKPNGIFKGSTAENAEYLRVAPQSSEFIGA
# In short: as §1
# Ba/F3 stable cells [5] = target: T5, Ba/F3 stable cells (Homo sapiens, UniProt P00533, T790M/L858R, cells depend on it); conditions: Ba/F3-EGFR L858R-T790M cells
# T5 construct: EC50 Ba/F3-EGFR L858R-T790M; other: Ba/F3-EGFR L858R-T790M cells, 72 h, CCK-8
# T5 sequence (P00533 whole entry T790M/L858R): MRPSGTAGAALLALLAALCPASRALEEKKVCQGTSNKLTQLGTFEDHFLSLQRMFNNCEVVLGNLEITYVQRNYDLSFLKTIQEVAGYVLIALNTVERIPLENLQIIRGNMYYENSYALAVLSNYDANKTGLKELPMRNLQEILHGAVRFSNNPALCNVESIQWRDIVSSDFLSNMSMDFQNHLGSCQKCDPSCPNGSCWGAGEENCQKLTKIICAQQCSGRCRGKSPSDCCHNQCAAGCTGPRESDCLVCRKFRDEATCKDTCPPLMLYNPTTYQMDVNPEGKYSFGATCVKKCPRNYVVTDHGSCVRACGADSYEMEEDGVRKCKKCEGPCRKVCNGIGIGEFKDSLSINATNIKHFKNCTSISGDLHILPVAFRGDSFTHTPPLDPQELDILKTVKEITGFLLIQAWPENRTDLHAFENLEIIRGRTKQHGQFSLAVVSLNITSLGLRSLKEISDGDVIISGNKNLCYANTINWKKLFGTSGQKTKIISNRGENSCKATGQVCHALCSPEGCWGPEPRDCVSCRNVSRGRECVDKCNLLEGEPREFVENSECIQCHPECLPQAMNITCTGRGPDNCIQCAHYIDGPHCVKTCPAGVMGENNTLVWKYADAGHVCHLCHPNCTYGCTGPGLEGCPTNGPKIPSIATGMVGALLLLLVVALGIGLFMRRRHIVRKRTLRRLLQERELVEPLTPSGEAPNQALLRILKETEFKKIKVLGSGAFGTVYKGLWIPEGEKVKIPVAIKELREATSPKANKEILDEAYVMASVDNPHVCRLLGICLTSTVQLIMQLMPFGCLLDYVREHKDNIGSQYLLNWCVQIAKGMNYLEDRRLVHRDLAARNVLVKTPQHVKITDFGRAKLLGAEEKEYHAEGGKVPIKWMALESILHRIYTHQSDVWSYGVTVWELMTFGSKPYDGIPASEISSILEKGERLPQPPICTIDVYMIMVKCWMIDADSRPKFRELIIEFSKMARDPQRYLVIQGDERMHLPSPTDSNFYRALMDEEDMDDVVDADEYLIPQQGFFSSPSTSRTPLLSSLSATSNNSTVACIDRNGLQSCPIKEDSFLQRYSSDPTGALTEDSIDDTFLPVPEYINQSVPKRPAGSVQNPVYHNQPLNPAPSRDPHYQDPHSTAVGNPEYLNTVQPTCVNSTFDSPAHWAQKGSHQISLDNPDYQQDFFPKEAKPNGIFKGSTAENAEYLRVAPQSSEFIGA
# In short: as §1
# Ba/F3 stable cells [6] = target: T6, Ba/F3 stable cells (Homo sapiens, UniProt P04626, DUP772-775, cells depend on it); conditions: Ba/F3-HER2 A775-G776insYVMA cells
# T6 construct: EC50 Ba/F3-HER2 A775-G776insYVMA; other: Ba/F3-HER2 A775-G776insYVMA cells, 72 h, CCK-8
# T6 sequence (P04626 with tags, fused parts or gaps DUP772-775): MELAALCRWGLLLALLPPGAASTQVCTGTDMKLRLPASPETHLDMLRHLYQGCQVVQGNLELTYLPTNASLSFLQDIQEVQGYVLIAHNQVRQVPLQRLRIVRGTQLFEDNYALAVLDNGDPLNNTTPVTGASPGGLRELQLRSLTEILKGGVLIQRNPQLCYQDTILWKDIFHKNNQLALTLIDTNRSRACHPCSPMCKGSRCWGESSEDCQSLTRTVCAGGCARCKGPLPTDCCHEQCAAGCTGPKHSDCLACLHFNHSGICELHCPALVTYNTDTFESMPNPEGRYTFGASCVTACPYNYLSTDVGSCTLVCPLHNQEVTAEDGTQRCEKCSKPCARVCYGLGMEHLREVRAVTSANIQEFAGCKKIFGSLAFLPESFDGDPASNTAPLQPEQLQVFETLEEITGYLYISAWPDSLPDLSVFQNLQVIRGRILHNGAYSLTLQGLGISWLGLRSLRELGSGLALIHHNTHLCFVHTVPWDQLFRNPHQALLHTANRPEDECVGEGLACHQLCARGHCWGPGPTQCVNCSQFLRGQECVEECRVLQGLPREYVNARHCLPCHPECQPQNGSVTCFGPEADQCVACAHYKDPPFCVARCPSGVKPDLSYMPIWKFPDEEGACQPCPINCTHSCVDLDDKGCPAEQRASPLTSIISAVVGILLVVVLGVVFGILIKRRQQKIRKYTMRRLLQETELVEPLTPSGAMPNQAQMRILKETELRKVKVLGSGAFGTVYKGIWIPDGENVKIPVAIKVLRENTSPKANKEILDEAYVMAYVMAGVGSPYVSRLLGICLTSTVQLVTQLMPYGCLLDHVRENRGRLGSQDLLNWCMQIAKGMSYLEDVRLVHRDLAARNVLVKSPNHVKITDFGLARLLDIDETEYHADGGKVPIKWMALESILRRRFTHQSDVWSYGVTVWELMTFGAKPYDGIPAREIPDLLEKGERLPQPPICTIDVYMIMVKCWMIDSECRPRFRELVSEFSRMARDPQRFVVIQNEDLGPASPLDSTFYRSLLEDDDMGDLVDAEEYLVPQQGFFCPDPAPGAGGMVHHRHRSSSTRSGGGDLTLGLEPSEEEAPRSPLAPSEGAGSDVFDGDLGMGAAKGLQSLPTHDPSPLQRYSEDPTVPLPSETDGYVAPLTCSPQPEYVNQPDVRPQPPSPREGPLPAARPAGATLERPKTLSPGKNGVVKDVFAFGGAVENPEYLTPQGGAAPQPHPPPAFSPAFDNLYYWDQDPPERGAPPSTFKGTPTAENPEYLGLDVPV
# In short: as §1
EC50 (Ba/F3 stable cells [1]) [nM],EC50 (Ba/F3 stable cells [2]) [nM],EC50 (Ba/F3 stable cells [3]) [nM],EC50 (Ba/F3 stable cells [4]) [nM],EC50 (Ba/F3 stable cells [5]) [nM],EC50 (Ba/F3 stable cells [6]) [nM],Structure (SMILES)
≤ 200,≤ 200,≤ 200,≤ 200,≤ 200,≤ 200,"C=CC(=O)N1CCC(Oc2cc3c(Nc4cccc5ccccc45)ncnc3cc2OC)CC1 [Compound 149, 1-(4-((7-methoxy-4-(naphthalen-1-ylamino)quinazolin-6-yl)oxy)piperidin-1-yl)prop-2-en-1-one]"
200 to 1000,> 1000,200 to 1000,≤ 200,> 1000,> 1000,"C=CC(=O)N1CCC(Oc2cc3c(Nc4ccc5[nH]ncc5c4)ncnc3cc2OC)CC1 [Compound 150, 1-(4-((4-((1H-indazol-5-yl)amino)-7-methoxyquinazolin-6-yl)oxy)piperidin-1-yl)prop-2-en-1-one]"
> 1000,> 1000,> 1000,> 1000,> 1000,> 1000,"C=CC(=O)N1CCC(Oc2cc3c(Nc4cc5oc6ccccc6c5cc4OC)ncnc3cc2OC)CC1 [Compound 151, 1-(4-((7-methoxy-4-((2-methoxydibenzo[b,d]furan-3-yl)amino)quinazolin-6-yl)oxy)piperidin-1-yl)prop-2-en-1-one]"
200 to 1000,200 to 1000,200 to 1000,≤ 200,200 to 1000,≤ 200,"C=CC(=O)N1CCC(Oc2cc3c(Nc4ccc5c(c4)OCO5)ncnc3cc2OC)CC1 [Compound 152, 1-(4-((4-(benzo[d][1,3]dioxol-5-ylamino)-7-methoxyquinazolin-6-yl)oxy)piperidin-1-yl)prop-2-en-1-one]"
≤ 200,200 to 1000,200 to 1000,≤ 200,200 to 1000,200 to 1000,"C=CC(=O)N1CCC(Oc2cc3c(Nc4ccc5c(c4)CCC5)ncnc3cc2OC)CC1 [Compound 153, 1-(4-((4-((2,3-dihydro-1H-inden-5-yl)amino)-7-methoxyquinazolin-6-yl)oxy)piperidin-1-yl)prop-2-en-1-one]"
> 1000,> 1000,> 1000,≤ 200,200 to 1000,200 to 1000,"C=CC(=O)N1CCC(Oc2cc3c(Nc4ccc5sc(C)nc5c4)ncnc3cc2OC)CC1 [Compound 155, 1-(4-((7-methoxy-4-((2-methylbenzo[d]thiazol-5-yl)amino)quinazolin-6-yl)oxy)piperidin-1-yl)prop-2-en-1-one]"
≤ 200,200 to 1000,≤ 200,≤ 200,200 to 1000,≤ 200,"C=CC(=O)N1CCC(Oc2cc3c(Nc4cccc5c4CCC5)ncnc3cc2OC)CC1 [Compound 156, 1-(4-((4-((2,3-dihydro-1H-inden-4-yl)amino)-7-methoxyquinazolin-6-yl)oxy)piperidin-1-yl)prop-2-en-1-one]"
200 to 1000,> 1000,200 to 1000,≤ 200,≤ 200,> 1000,"C=CC(=O)N1CCC(Oc2cc3c(Nc4ccc5ccccc5n4)ncnc3cc2OC)CC1 [Compound 158, 1-(4-((7-methoxy-4-(quinolin-2-ylamino)quinazolin-6-yl)oxy)piperidin-1-yl)prop-2-en-1-one]"
200 to 1000,> 1000,200 to 1000,≤ 200,200 to 1000,200 to 1000,"C=CC(=O)N1CCC(Oc2cc3c(Nc4cc5ccccc5cn4)ncnc3cc2OC)CC1 [Compound 159, 1-(4-((4-(isoquinolin-3-ylamino)-7-methoxyquinazolin-6-yl)oxy)piperidin-1-yl)prop-2-en-1-one]"
≤ 200,> 1000,200 to 1000,≤ 200,200 to 1000,> 1000,"C=CC(=O)N1CCC(Oc2cc3c(Nc4ccc5ccccc5c4Cl)ncnc3cc2OC)CC1 [Compound 160, 1-(4-((4-((1-chloronaphthalen-2-yl)amino)-7-methoxyquinazolin-6-yl)oxy)piperidin-1-yl)prop-2-en-1-one]"
200 to 1000,> 1000,200 to 1000,≤ 200,200 to 1000,> 1000,"C=CC(=O)N1CCC(Oc2cc3c(Nc4nccc5ccccc45)ncnc3cc2OC)CC1 [Compound 161, 1-(4-((4-(isoquinolin-1-ylamino)-7-methoxyquinazolin-6-yl)oxy)piperidin-1-yl)prop-2-en-1-one]"
≤ 200,> 1000,200 to 1000,≤ 200,≤ 200,200 to 1000,"C=CC(=O)N1CCC(Oc2cc3c(Nc4ccnc5ccccc45)ncnc3cc2OC)CC1 [Compound 162, 1-(4-((7-methoxy-4-(quinolin-4-ylamino)quinazolin-6-yl)oxy)piperidin-1-yl)prop-2-en-1-one]"
≤ 200,200 to 1000,200 to 1000,≤ 200,≤ 200,200 to 1000,"C=CC(=O)N1CCC(Oc2cc3c(Nc4ccc(Cl)c5ccccc45)ncnc3cc2OC)CC1 [Compound 164, 1-(4-((4-((4-chloronaphthalen-1-yl)amino)-7-methoxyquinazolin-6-yl)oxy)piperidin-1-yl)prop-2-en-1-one]"
200 to 1000,> 1000,200 to 1000,≤ 200,200 to 1000,> 1000,"C=CC(=O)N1CCC(Oc2cc3c(Nc4cccc5[nH]ccc45)ncnc3cc2OC)CC1 [Compound 165, 1-(4-((4-((1H-indol-4-yl)amino)-7-methoxyquinazolin-6-yl)oxy)piperidin-1-yl)prop-2-en-1-one]"
≤ 200,> 1000,≤ 200,≤ 200,200 to 1000,≤ 200,"C=CC(=O)N1CCC(Oc2cc3c(Nc4cccc5cc[nH]c45)ncnc3cc2OC)CC1 [Compound 166, 1-(4-((4-((1H-indol-7-yl)amino)-7-methoxyquinazolin-6-yl)oxy)piperidin-1-yl)prop-2-en-1-one]"
200 to 1000,> 1000,200 to 1000,≤ 200,≤ 200,200 to 1000,"C=CC(=O)N1CCC(Oc2cc3c(Nc4ccc(C)c5ccccc45)ncnc3cc2OC)CC1 [Compound 167, 1-(4-((7-methoxy-4-((4-methylnaphthalen-1-yl)amino)quinazolin-6-yl)oxy)piperidin-1-yl)prop-2-en-1-one]"
≤ 200,200 to 1000,≤ 200,≤ 200,> 1000,≤ 200,"C=CC(=O)N1CCC(Oc2cc3c(Nc4ccc5c(c4)CCN5)ncnc3cc2OC)CC1 [Compound 168, 1-(4-((4-(indolin-5-ylamino)-7-methoxyquinazolin-6-yl)oxy)piperidin-1-yl)prop-2-en-1-one]"
≤ 200,200 to 1000,≤ 200,≤ 200,200 to 1000,≤ 200,"C=CC(=O)N1CCC(Oc2cc3c(Nc4ccc5[nH]ccc5c4)ncnc3cc2OC)CC1 [Compound 169, 1-(4-((4-((1H-indol-5-yl)amino)-7-methoxyquinazolin-6-yl)oxy)piperidin-1-yl)prop-2-en-1-one]"
200 to 1000,> 1000,200 to 1000,≤ 200,≤ 200,200 to 1000,"C=CC(=O)N1CCC(Oc2cc3c(Nc4ccc5c(ccn5C)c4)ncnc3cc2OC)CC1 [Compound 170, 1-(4-((7-methoxy-4-((1-methyl-1H-indol-5-yl)amino)quinazolin-6-yl)oxy)piperidin-1-yl)prop-2-en-1-one]"
≤ 200,200 to 1000,200 to 1000,≤ 200,> 1000,≤ 200,"C=CC(=O)N1CCC(Oc2cc3c(NCc4ccc(F)cc4)ncnc3cc2OC)CC1 [Compound 172, 1-(4-((4-((4-fluorobenzyl)amino)-7-methoxyquinazolin-6-yl)oxy)piperidin-1-yl)prop-2-en-1-one]"
≤ 200,> 1000,200 to 1000,≤ 200,> 1000,> 1000,"C=CC(=O)N1CCC(Oc2cc3c(N[C@H](C)c4ccc(F)cc4)ncnc3cc2OC)CC1 [Compound 173, (R)-1-(4-((4-((1-(4-fluorophenyl)ethyl)amino)-7-methoxyquinazolin-6-yl)oxy)piperidin-1-yl)prop-2-en-1-one]"
